Literature values as cited in patent publication US20210322306A1, “ORAL DISSOLVABLE FILM WITH HIGH LOAD OF POLYMERIC BINDER” (CURE Pharmaceutical Holding Corp., priority 2020, published 2021).

Experiments:
[1] = neat binder
[2] = neat binder; remark: listed apart in the source

- Polymeric Binder: Glass Transition Temperature (Tg) (determined by thermomechanical analysis (TMA)) [1]: 95 °C
- Polymeric Binder: Glass Transition Temperature (Tg) (determined by differential scanning calorimetry (DSC)) [2]: 102 °C
SMILES: OC[C@H]1O[C@@H](O[C@H]2[C@H](O)[C@@H](O)C(O)O[C@@H]2CO)[C@H](O)[C@@H](O)[C@H]1O (some centres unmarked) [Lactose]
